Measured values reported in patent US20070161637A1, “Substituted pyridin-2-ylamine analogues” (Neurogen Corporation, priority 2003, published 2007).

Target: T1, human capsaicin receptor (Homo sapiens, UniProt Q8NER1)
T1 construct: transfected with the pBK-CMV expression construct encoding the full length human capsaicin receptor; expressed in transfected cells; host or cells: HEK293, stably transfected clonal lines, plasmid pBK-CMV
Test: Calcium mobilization assay, determination of antagonist activity (Example 6)
Format: cell-based
Conditions: concentration giving 50% decrease in the fluorescence response of cells expressing human capsaicin receptor exposed to capsaicin
Procedure: A cDNA encoding full length human capsaicin receptor (SEQ ID NO:1, 2 or 3 of U.S. Pat. No. 6,482,611) was subcloned in the plasmid pBK-CMV (Stratagene, La Jolla, Calif.) for recombinant expression in mammalian cells.
Human embryonic kidney (HEK293) cells were transfected with the pBK-CMV expression construct encoding the full length human capsaicin receptor using standard methods. The transfected cells were selected for two weeks in media containing G418 (400 μg/ml) to obtain a pool of stably transfected cells. Independent clones were isolated from this pool by limiting dilution to obtain clonal stable cell lines for use in subsequent experiments.
Cells transfected with expression plasmids (as described in Example 4) and thereby expressing human capsaicin receptor are seeded and grown to 70-90% confluency in FALCON black-walled, clear-bottomed 96-well plates (#3904, BECTON-DICKINSON, Franklin Lakes, N.J.). The culture medium is emptied from the 96 well plates and FLUO-3 AM calcium sensitive dye (Molecular Probes, Eugene, Oreg.) is added to each well (dye solution: 1 mg FLUO-3 AM, 440 μL DMSO and 440 μl 20% pluronic acid in DMSO, diluted 1:250 in Krebs-Ringer HEPES (KRH) buffer (25 mM HEPES, 5 mM KCl, 0.96 mM NaH2PO4, 1 mM MgSO4, 2 mM CaCl2, 5 mM glucose, 1 mM probenecid, pH 7.4), 50 μl diluted solution per well). Plates are covered with aluminum foil and incubated at 37° C. for 1-2 hours in an environment containing 5% CO2. After the incubation, the dye is emptied from the plates, and the cells are washed once with KRH buffer, and resuspended in KRH buffer.
To measure the ability of a test compound to agonize or antagonize a calcium mobilization response in cells expressing capsaicin receptors to capsaicin or other vanilloid agonist, the EC50 of the agonist capsaicin is first determined. An additional 20 μl of KRH buffer and 1 μl DMSO is added to each well of cells, prepared as described above. 100 μl capsaicin in KRH buffer is automatically transferred by the FLIPR instrument to each well. Capsaicin-induced calcium mobilization is monitored using either FLUOROSKAN ASCENT (Labsystems; Franklin, Mass.) or FLIPR (fluorometric imaging plate reader system; Molecular Devices, Sunnyvale, Calif.) instruments. Data obtained between 30 and 60 seconds after agonist application are used to generate an 8-point concentration response curve, with final capsaicin concentrations of 1 nM to 3 μM. […] software (Synergy Software, Reading, Pa.) is used to fit the data to the equation: y=a*(1/(1+(b/x)^c)) to determine the 50% excitatory concentration (EC50) for the response. In this equation, y is the maximum fluorescence signal, x is the concentration of the agonist or antagonist (in this case, capsaicin), a is the Emax, b corresponds to the EC50 value and c is the Hill coefficient. Determination Agonist Activity
Test compounds are dissolved in DMSO, diluted in 20 μl KRH buffer so that the final concentration of test compounds in the assay well is between 1 μM and 5 μM, and added to cells prepared as described above. The 96 well plates containing prepared cells and test compounds are incubated in the dark, at room temperature for 0.5 to 6 hours. It is important that the incubation not continue beyond 6 hours. Just prior to determining the fluorescence response, 100 μl capsaicin in KRH buffer at twice the EC50 concentration determined as described above is automatically added by the FLIPR instrument to each well of the 96 well plate for a final sample volume of 200 μl and a final capsaicin concentration equal to the EC50. The final concentration of test compounds in the assay wells is between 1 μM and 5 μM.

T1 sequence (Q8NER1 whole entry): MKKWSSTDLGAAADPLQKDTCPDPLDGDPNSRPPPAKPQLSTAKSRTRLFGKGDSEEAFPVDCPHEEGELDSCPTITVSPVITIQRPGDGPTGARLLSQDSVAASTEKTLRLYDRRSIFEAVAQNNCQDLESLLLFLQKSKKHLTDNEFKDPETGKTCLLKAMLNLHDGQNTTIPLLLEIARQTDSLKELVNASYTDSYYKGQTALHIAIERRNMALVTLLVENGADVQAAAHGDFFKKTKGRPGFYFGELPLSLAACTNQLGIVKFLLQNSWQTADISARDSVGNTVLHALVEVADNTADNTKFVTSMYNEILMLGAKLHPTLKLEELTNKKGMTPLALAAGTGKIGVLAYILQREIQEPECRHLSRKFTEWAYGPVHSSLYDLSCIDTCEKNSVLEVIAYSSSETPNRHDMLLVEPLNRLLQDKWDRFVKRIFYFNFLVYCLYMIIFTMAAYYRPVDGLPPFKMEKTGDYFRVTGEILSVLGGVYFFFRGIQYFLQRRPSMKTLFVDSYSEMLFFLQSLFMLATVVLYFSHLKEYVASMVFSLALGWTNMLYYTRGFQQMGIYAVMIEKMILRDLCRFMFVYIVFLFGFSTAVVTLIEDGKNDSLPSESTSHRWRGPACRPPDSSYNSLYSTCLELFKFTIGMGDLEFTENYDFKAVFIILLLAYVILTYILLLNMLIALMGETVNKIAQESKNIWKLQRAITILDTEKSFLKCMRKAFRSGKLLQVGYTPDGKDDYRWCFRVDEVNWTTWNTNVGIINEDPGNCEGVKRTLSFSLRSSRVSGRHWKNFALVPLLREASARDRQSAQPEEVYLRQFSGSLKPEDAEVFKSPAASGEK

IC50, ≤ 1000 nM:
CN1CCN(c2nc(Nc3ccc(C(C)(C)C)cc3)nc(OCc3ccccc3C(F)(F)F)n2)CC1 [Compound 1, (4-tert-Butyl-phenyl)-[4-(4-methyl-piperazin-1-yl)-6-(2-trifluoromethyl-benzyloxy)-[1,3,5]triazine-2-yl]-amine]
COc1ccccc1COc1nc(Cl)nc(Nc2ccc(C(C)(C)C)cc2)n1 [Compound 3, (4-tert-Butyl-phenyl)-[4-chloro-6-(2-methoxy-benzyloxy)-[1,3,5]triazin-2-yl]-amine]
CC(C)(C)c1ccc(Nc2nc(Cl)nc(OCc3ccccc3C(F)(F)F)n2)cc1 [Compound 4, (4-tert-Butyl-phenyl)-[4-chloro-6-(2-trifluoromethyl-benzyloxy)-[1,3,5]triazin-2-yl]-amine]
CC(C)(C)c1ccc(Nc2nc(Cl)nc(N3CCc4ccccc4C3)n2)cc1 [Compound 5, (4-tert-Butyl-phenyl)-[4-chloro-6-(3,4-dihydro-1H-isoquinolin-2-yl)-[1,3,5]triazin-2-yl]-amine]
COc1cc2c(cc1OC)CN(c1nc(Cl)nc(Nc3ccc(C(C)(C)C)cc3)n1)CC2 [Compound 6, (4-tert-Butyl-phenyl)-[4-chloro-6-(6,7-dimethoxy-3,4-dihydro-1H-isoquinolin-2-yl)-[1,3,5]triazin-2-yl]-amine]
COc1cc2c(cc1OC)CN(c1nc(Cl)nc(Nc3ccc(C(C)(C)C)cc3)n1)C(C)C2 (stereo not shown) [Compound 7, (4-tert-Butyl-phenyl)-[4-chloro-6-(6,7-dimethoxy-3-methyl-3,4-dihydro-1H-isoquinolin-2-yl)-[1,3,5]triazin-2-yl]-amine]
CC(C)(C)c1ccc(Nc2cc(OCc3ccccc3C(F)(F)F)ncn2)cc1 [Compound 8, (4-tert-Butyl-phenyl)-[6-(2-trifluoromethyl-benzyloxy)-pyrimidin-4-yl]-amine]
FC(F)(F)c1ccc(Nc2nc(OCc3ccccc3C(F)(F)F)nc(-c3ccccc3Cl)n2)cc1 [Compound 9, [4-(2-Chloro-phenyl)-6-(2-trifluoromethyl-benzyloxy)-[1,3,5]triazin-2-yl]-(4-trifluoromethyl-phenyl)-amine]
FC(F)(F)c1ccc(Nc2nc(OCc3ccccc3C(F)(F)F)nc(-c3ccccc3C(F)(F)F)n2)cc1 [Compound 10, [4-(2-Trifluoromethyl-benzyloxy)-6-(2-trifluoromethyl-phenyl)-[1,3,5]triazin-2-yl]-(4-trifluoromethyl-phenyl)-amine]
CC(C)(C)c1ccc(Nc2nc(OCc3ccccc3Cl)nc(OCc3ccccc3Cl)n2)cc1 [Compound 11, [4,6-Bis-(2-chloro-benzyloxy)-[1,3,5]triazin-2-yl]-(4-tert-butyl-phenyl)-amine]
CC(C)(C)c1ccc(Nc2nc(OCc3ccccc3F)nc(OCc3ccccc3F)n2)cc1 [Compound 12, [4,6-Bis-(2-fluoro-benzyloxy)-[1,3,5]triazin-2-yl]-(4-tert-butyl-phenyl)-amine]
COc1ccccc1COc1nc(Nc2ccc(C(C)(C)C)cc2)nc(OCc2ccccc2OC)n1 [Compound 13, [4,6-Bis-(2-methoxy-benzyloxy)-[1,3,5]triazin-2-yl]-(4-tert-butyl-phenyl)-amine]
CC(C)(C)c1ccc(Nc2nc(OCc3ccccc3C(F)(F)F)nc(OCc3ccccc3C(F)(F)F)n2)cc1 [Compound 14, [4,6-Bis-(2-trifluoromethyl-benzyloxy)-[1,3,5]triazin-2-yl]-(4-tert-butyl-phenyl)-amine]
FC(F)(F)c1ccc(Nc2nc(OCc3ccccc3C(F)(F)F)nc(OCc3ccccc3C(F)(F)F)n2)cc1 [Compound 15, [4,6-Bis-(2-trifluoromethyl-benzyloxy)-[1,3,5]triazin-2-yl]-(4-trifluoromethyl-phenyl)-amine]
CC(C)(C)c1ccc(Nc2nc(OCc3ncccc3Cl)nc(OCc3ncccc3Cl)n2)cc1 [Compound 16, [4,6-Bis-(3-chloro-pyridin-2-ylmethoxy)-[1,3,5]triazin-2-yl]-(4-tert-butyl-phenyl)-amine]
CC(C)(C)c1ccc(Nc2nc(OCc3ccccn3)nc(OCc3ccccn3)n2)cc1 [Compound 17, [4,6-Bis-(pyridin-2-ylmethoxy)-[1,3,5]triazin-2-yl]-(4-tert-butyl-phenyl)-amine]
FC(F)(F)c1ccc(Nc2nc(Cl)nc(OCc3ccccc3C(F)(F)F)n2)cc1 [Compound 18, [4-Chloro-6-(2-trifluoromethyl-benzyloxy)-[1,3,5]triazin-2-yl]-(4-trifluoromethyl-phenyl)-amine]
FC(F)(F)c1ccc(Nc2nc(OCc3ccccc3C(F)(F)F)nc(OC3CCCC3)n2)cc1 [Compound 19, [4-Cyclopentyloxy-6-(2-trifluoromethyl-benzyloxy)-[1,3,5]triazin-2-yl]-(4-trifluoromethyl-phenyl)-amine]
CCOc1nc(Nc2ccc(C(F)(F)F)cc2)nc(OCc2ccccc2C(F)(F)F)n1 [Compound 20, [4-Ethoxy-6-(2-trifluoromethyl-benzyloxy)-[1,3,5]triazin-2-yl]-(4-trifluoromethyl-phenyl)-amine]
FC(F)(F)c1ccc(Nc2nc(OCc3ccccc3C(F)(F)F)nc(N3CCOCC3)n2)cc1 [Compound 21, [4-Morpholin-4-yl-6-(2-trifluoromethyl-benzyloxy)-[1,3,5]triazin-2-yl]-(4-trifluoromethyl-phenyl)-amine]
FC(F)(F)c1ccc(Nc2nc(OCc3ccccc3C(F)(F)F)nc(-c3ccccc3)n2)cc1 [Compound 22, [4-Phenyl-6-(2-trifluoromethyl-benzyloxy)-[1,3,5]triazin-2-yl]-(4-trifluoromethyl-phenyl)-amine]
FC(F)(F)c1ccc(Nc2nc(OCc3ccccc3C(F)(F)F)nc(-c3cccnc3)n2)cc1 [Compound 23, [4-Pyridin-3-yl-6-(2-trifluoromethyl-benzyloxy)-[1,3,5]triazin-2-yl]-(4-trifluoromethyl-phenyl)-amine]
CC(C)(O)CCNc1nc(Nc2ccc(C(F)(F)F)cc2)nc(OCc2ccccc2C(F)(F)F)n1 [Compound 24, 2-Methyl-4-[4-(2-trifluoromethyl-benzyloxy)-6-(4-trifluoromethyl-phenylamino)-[1,3,5]triazin-2-ylamino]-butan-2-ol]
Oc1nc(Nc2ccc(C(F)(F)F)cc2)nc(OCc2ccccc2C(F)(F)F)n1 [Compound 25, 4-(2-Trifluoromethyl-benzyloxy)-6-(4-trifluoromethyl-phenylamino)-[1,3,5]triazin-2-ol]
FC(F)(F)c1ccc(Nc2nc(NCCN3CCOCC3)nc(OCc3ccccc3C(F)(F)F)n2)cc1 [Compound 28, N-(2-Morpholin-4-yl-ethyl)-6-(2-trifluoromethyl-benzyloxy)-N′-(4-trifluoromethyl-phenyl)-[1,3,5]triazine-2,4-diamine]
CC(C)CCNc1nc(Nc2ccc(C(F)(F)F)cc2)nc(OCc2ccccc2C(F)(F)F)n1 [Compound 29, N-(3-Methyl-butyl)-6-(2-trifluoromethyl-benzyloxy)-N′-(4-trifluoromethyl-phenyl)-[1,3,5]triazine-2,4-diamine]
CC(C)(C)c1ccc(Nc2nc(N)nc(OCc3ccccc3Cl)n2)cc1 [Compound 30, N-(4-tert-Butyl-phenyl)-6-(2-chloro-benzyloxy)-[1,3,5]triazine-2,4-diamine]
CC(C)(C)c1ccc(Nc2nc(N)nc(OCc3ccccc3F)n2)cc1 [Compound 31, N-(4-tert-Butyl-phenyl)-6-(2-fluoro-benzyloxy)-[1,3,5]triazine-2,4-diamine]
